Laboratory results: patent US11576914B2, “Drug for treating or preventing disorder caused by TGF-β signaling, and application thereof” (THE DOSHISHA, priority 2017, dated 2023)

Experiments:
[1] = system: cleaved caspase-3 and PARP; experiment: Western blot of caspase 3 and PARP in iFECD stimulated with TGF-β2; assay type: cell-based, human; settings: 0.1 μM
Method: The medium was removed from the culture dish of cultured disease model cells, and the disease model cells were supplemented with 1×PBS (−) that was preheated to 37° C., followed by washing. This operation was repeated twice. The cells were supplemented with 1×PBS (−) again and incubated for 5 minutes at 37° C. (5% CO2). After the PBS (−) was removed, the cells were supplemented with 0.05% Trypsin-EDTA (nacalai tesque, 32778-34) and incubated for 5 minutes at 37° C. (5% CO2). The cells were then suspended in a medium, and collected by centrifugation at 1500 rpm for 3 minutes. Medium: DMEM (nacalai tesque, 08456-36)+10% FBS (Biowest, S1820-500)+1% P/S (nacalai tesque, 26252-94).
The Fuchs' endothelial corneal dystrophy patient-derived immortalized corneal endothelial cells were seeded in a 6-well plate at a rate of 1.5×10^5 cells per well and cultured at 37° C. (5% CO2) for 48 hours. DMEM+10% FBS+1% P/S was used as the medium. After 48 hours, the medium was removed, and SB203580 (Cayman, 13067), PH-797804 (Selleck Chemicals, S2726), VX-702 (Selleck Chemicals, 56005) and AKP-001 were added to DMEM+2% FBS+1% P/S so that all the final concentration was 0.1 μM, followed by culturing as 24-hour pretreatment.
After 24 hours, the medium was removed, and SB203580 (Cayman, 13067), PH-797804 (Selleck Chemicals, S2726), VX-702 (Selleck Chemicals, 56005) and AKP-001, together with 100 ng/ml recombinant human TGF-β2 (R & D systems, RND302-B2-002), were added to DMEM+2% FBS+1% P/S so that all the final concentration was 0.1 μM, followed by culturing for 24 hours. After 24 hours, the protein was subjected to Western blotting according to the following procedure to evaluate the effect on apoptosis.
The medium was collected on ice to collect free and dead cells as well. The solution obtained from washing the cells twice with 1×PBS (−) was also collected, followed by centrifugation of 800 g at 4° C. for 5 minutes. The supernatant was discarded to obtain precipitates. The washed cells were supplemented with a protein extraction buffer (RIPA; 50 mM Tris-HCl (pH 7.4), 150 mM NaCl, 1 mM EDTA, 0.1% SDS, 0.5% DOC, 1% NP-40) on ice to extract proteins. The precipitates from centrifuging the free and dead cells were also subsequently suspended together for extraction. The collected solution was pulverized three times for 30 seconds in cold water with a sonication device (BIORUPTOR, TOSHO DENKI) and centrifuged for 10 min at 4° C. at 15000 rpm to collect the supernatant of proteins.
Eight μg of the extracted protein was separated by SDS-PAGE and transferred onto a nitrocellulose membrane. A rabbit anti-Caspase 3 antibody (Cell Signaling, 9662), rabbit anti-PARP antibody (Cell Signaling, 9542), and mouse anti-GAPDH antibody (MBL, M171-3) were used as the primary antibodies. A peroxidase-labeled anti-rabbit antibody and anti-mouse antibody (GE Healthcare Biosciences, NA931V, NA934V) were used as the secondary antibodies. For the primary antibodies, the rabbit anti-PARP antibody was diluted 1000-fold, the rabbit anti-Caspase 3 antibody was diluted 1000-fold, and the mouse anti-GAPDH antibody was diluted 3000-fold. Further, the secondary antibody was diluted 5000-fold. Chemi Lumi ONE Ultra (Nacalai Tesque, 11644-40) was used for detection. The detected band strength was analyzed with a lumino image analyzer LAS-4000 mini (Fuji Film) and ImageQuant™ software (GE Healthcare).

[2] = system: human corneal endothelial cells; experiment: Cell Titer-Glo Luminescent Cell Viability Assay in the presence of AKP-001; assay type: cell-based; settings: 24 hours
Method: Human corneal endothelial cells were peeled off with Descemet's membranes from research-purpose donor corneas, followed by culturing. For the medium, the following was used: OptiMEM-I (invitrogen, 31985-088)+8% FBS (Thermo, SH30084.03)+5 ng/mL epidermal growth factor (invitrogen, PHG0311)+20 μg/mL L-ascorbic acid 2-sesquimagnesium phosphate hydrate (SIGMA, A8960)+200 mg/L calcium chloride dihydrate (SIGMA, C7902)+0.08% chondroitin sulfate (Wako Pure Chemical Industries, Ltd., 032-14613)+50 μg/mL gentamicin (invitrogen, 15710-064)+1 μM SB431542 (WAKO, 192-16541)+10 μM SB203580 (Cayman, 13067). Culture dishes pre-coated with laminin-511E8 (Nippi, 381-07363) were used.
Cultured human corneal endothelial cells were seeded at a rate of 1×10^4 per well in a 96-well plate coated with laminin-511E8, and the cells were cultured until reaching confluence at 37° C. (5% CO2). For the medium, used was OptiMEM-I (invitrogen, 31985-088)+8% FBS (Thermo, SH30084.03)+5 ng/mL epidermal growth factor (invitrogen, PHG0311)+20 μg/mL L-ascorbic acid 2-sesquimagnesium phosphate hydrate (SIGMA, A8960)+200 mg/L calcium chloride dihydrate (SIGMA, C7902)+0.08% chondroitin sulfate (Wako Pure Chemical Industries, Ltd., 032-14613)+50 μg/mL gentamicin (invitrogen, 15710-064)+1 μM SB431542 (WAKO, 192-16541)+10 μM SB203580 (Cayman, 13067).
Upon reaching confluence, the culturing was further conducted for one more week with OptiMEM-I (invitrogen, 31985-088)+8% FBS (Thermo, SH30084.03)+20 μg/mL+200 mg/L calcium chloride dihydrate (SIGMA, C7902)+0.08% chondroitin sulfate (Wako Pure Chemical Industries, Ltd., 032-14613)+50 μg/mL gentamicin (invitrogen, 15710-064). […]
The medium was discarded to 50 μl per well, and Cell Titer-Glo Luminescent Cell Viability Assay solution (Promega, G7572) was added to the 50 μl/well to reach 1:1 with the medium. […] After standing, 50 μl was transferred to an Assay plate (Corning, 3912, Assay plate well, white polystyrene), and the […] was measured using GloMax-Multi Detection System (Promega, E7051).

Structure (SMILES): O=C(Cc1c(F)cccc1Cl)Nc1onc(-c2ccc(F)cc2)c1-c1ccncn1 [AKP-001, 5-[(2-chloro-6-fluorophenyl)acetylamino]-3-(4-fluorophenyl)-4-(4-pyrimidinyl)isoxazole]
- cleaved caspase-3 and PARP expression ([1]; 100 ng/ml TGF-β2, 24 hours): hardly any
- caspase activity ([1]; TGF-β2): inhibited
- cell damage (cell viability) ([2]; 0.1 μM, 0.3 μM, 1 μM, 3 μM or 10 μM): no cell damage was observed
- number of the cells (cell viability) ([2]; 30 μM and 100 μM): significantly reduced the number of the cells
- concentrations at which less toxic to the cells [2]: less than 30 μM
